Patent US6043228A, “O^6 -substituted guanine derivatives, a process for their preparation and their use in treating tumor cells” (Cancer Research Campaign Technology Limited, priority 1993, dated 2000)
pIC50: −log10 of the molar value. Entries after “also recorded” stand apart in the source; their conditions may differ. Like-named read-outs stand apart in the source and are kept apart here.

Legend:
ATase in Raji cells = target: T1, ATase in Raji cells (Homo sapiens, UniProt P16455); assay: Inactivation of ATase activity in mammalian cells: Raji; format: cell-based
T1 construct: endogenous in cells; host or cells: Raji
T1 sequence (P16455 1-207): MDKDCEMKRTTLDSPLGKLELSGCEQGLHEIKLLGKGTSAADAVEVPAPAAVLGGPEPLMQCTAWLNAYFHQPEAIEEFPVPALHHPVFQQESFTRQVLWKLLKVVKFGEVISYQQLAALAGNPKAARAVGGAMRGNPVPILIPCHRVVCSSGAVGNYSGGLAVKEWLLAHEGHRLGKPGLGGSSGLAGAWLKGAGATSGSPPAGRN
Experimental: Mammalian cells were cultured under standard conditions. For example, Raji (a human lymphoblastoid cell line from a Burkitt's lymphoma) cells were grown in suspension culture in RPMI medium supplemented with 10% horse serum. A375M cells are human melanoma cells from which the xenografts described below were established following subcutaneous injection into nude mice: WiDr cells are a human colon carcinoma cell line: Hamster+120 cells are a mitozolomide-selected subline of a Chinese hamster lung fibroblast V79 cell line called RJKO: Yoshida cells are a rat carcinosarcoma cell line and YRbus is a busulphan resistant subline thereof: XP cells are an SV40-transformed fibroblast cell line originally from the skin of a Xeroderma piamentosum patient, pHMGhAT2b cells are a clone of these cells that have been transfected with a mammalian cell expression vector containing the human ATase cDNA and pHMGla cells are a clone that have been transfected with the expression vector only (i.e. one not containing the human ATase cDNA). Cell pellets were resuspended in cold (4° C.) buffer I containing 2 μg/ml leupeptin and sonicated for 10 seconds at 12μ peak to peak distance. After cooling in ice, the cells were sonicated for a further 10 seconds at 18μ. […]

[1] = test system: Chinese Hamster V79 cells; assay: Sensitivity of mammalian cells to the inactivators alone: V79 cells; format: cell-based; conditions: inactivator alone, up to 600 μM
Experimental: In order to assess the effects on cell growth alone, Xeroderma pigmentosum cells and Chinese Hamster V79 cells were exposed to increasing concentrations (up to 600 μM) of selected inactivators for 2 h at 37°. In some cases, the inactivators were allowed to undergo hydrolysis at 37° C. for 20 hours and then added to Raji cells in order to assess the extent to which the decomposition products of the agents might inhibit cell growth. After 6 days the extent of cell growth was determined as described above.

[2] = test system: human bone marrow granulocyte macrophage colony forming cells; assay: Sensitization of bone marrow cells to temozolomide (GM-CFC assay); format: cell-based; conditions: for sensitization of human bone marrow cells to temozolomide, in words: 10 μM inactivator
From the text: For the granulocyte/macrophage colony-forming cell (GM-CFC) assay primary human bone marrow samples were obtained from patients undergoing cardiothoracic surgery. […] The colonies represented precursor cells of the granulocyte/macrophage lineage (huGM-CFC). Survival was expressed as a % of the number of colonies at zero dose temozolomide.

A375 tumour xenografts = assay: Xenograft study: sensitization of A375 tumour xenografts to BCNU; format: in vivo, nude mice; conditions: inactivator 30 or 60 mg/kg + BCNU 10-25 mg/kg i.p. (FIGS. 9-13)
Experimental: OX6 OPT, England (OLAC mice). […] For this reason lower doses were administered. Cells (10^6) in 100 μl of PBS were injected subcutaneously into the right-hand flank of 8-10 week old nu/nu athymic mice. […] The experimental animals were also weighed every 1-2 days. Measurements continued until tumours in the control animals reached the maximum allowable volume (i.e. 1 cm×1 cm×1 cm).

DBA2 mice [3] = assay: Toxicity of inactivators in combination with temozolomide in non-tumour-bearing DBA2 mice; format: in vivo, mouse; conditions: 20 mg/kg inactivator + temozolomide 100 mg/kg i.p., four consecutive days (FIG. 25)
Experimental: FIG. 25 is a graph showing the survival of animals in a comparative test of toxicity of BeG, B.4205 and B.4280 in combination with temozolomide (TZ) in non-tumour-bearing DBA, mice. Animals were given temozolomide alone (100 mg/kg i.p) or BeG (10 or 20 mg/kg i.p.), B.4205 (10 or 20 mg/kg i.p.) or B.4280 (10 or 20 mg/kg i.p.) followed one hour later by temozolomide (100 mg/kg i.p.) on four consecutive days. The vehicles were corn oil for the inactivators and PBS (20% DMSO) for temozolomide.

ATase [4] = assay: Inactivation of ATase in mammalian cells, summary over human, rat and Chinese hamster cell lines; format: cell-based; conditions: Table 5
Experimental: Mammalian cells were cultured under standard conditions. For example, Raji (a human lymphoblastoid cell line from a Burkitt's lymphoma) cells were grown in suspension culture in RPMI medium supplemented with 10% horse serum. […]
Cells were diluted to 10^6 /ml in culture medium containing either the appropriate concentration of inactivator or an equivalent volume of vehicle (DMSO). […] ATase activity was determined as described above, in duplicate sonicated cell extracts and expressed as the, percentage activity remaining based on that present in the untreated controls (for example 350-450 fm/mg in Raji cells).

ATase [5] = assay: ATase activity in tissues of nude mice after inactivator; format: in vivo, mouse; conditions: 10 mg/kg i.p., 24 and 48 hours (Table 10)
Experimental: ATase substrate DNA was prepared by incubation of purified calf thymes DNA with N-[^3 H]-methyl-N-nitrosuourea (18.7 Ci/mmole, Amersham International). Cell or tissue extracts (see 4.4) were incubated with [^3 H]-methylated-DNA substrate (100 μl containing 6.7 μg of DNA and 100 fmol of O^6 -[^3 H]methylguanine) at 37° C. for 60 mins. Following acid hydrolysis of the DNA as precviously described^21the [^3 H]-methylated protein was recovered and quantitated by liquid scintillation counting. […]
The mice in the tests shown in FIGS. 17 and 18 were BALB-C derived athymic male mice (nu/nu athymic) from the in-house breeding colony at the Paterson Institute for Cancer Research as described above (Animal Services Unit-ASU Mice).
Animals were given a single dose of B.4280 (10 mg/kg i.p.) and sacrificed

DBA2 mice [6] = assay: Toxicity of inactivators in combination with BCNU in DBA2 mice; format: in vivo, mouse; conditions: Table 11
From the text: All agents were given as a single i.p. dose

Row | Compound | pIC50 (ATase in Raji cells; Table 4, Raji cells, 2 hours at 37° C., read-out: Raji I50) | pIC50 (ATase in Raji cells; Table 5, Human Raji, read-out: Inactivation of ATase in Mammalian Cells I50) | growth inhibition / toxicity to V79 cells, in words [1] | sensitization of human bone marrow cells to temozolomide, in words ([2]; patient D (FIG. 14)) | sensitization of human bone marrow cells to temozolomide, in words ([2]; patients C & E (FIG. 14)) | sensitization of GM-CFC to cytotoxic effects of temozolomide, in words ([2]; four different patient samples, 10 μM (FIG. 23)) | sensitization of GM-CFCs to toxic effects of temozolomide, in words ([2]; three human bone marrow samples (FIG. 14)) | sensitization of A375 xenografts to BCNU (tumour volume), in words (A375 tumour xenografts) | acute toxicity in combination with temozolomide in DBA2 mice, in words (DBA2 mice [3]) | effectiveness relative to BeG in the cell lines used (ATase [4]) | recovery of ATase activity in tissues, in words (ATase [5]) | acute toxicity in combination with BCNU in DBA2 mice, in words (DBA2 mice [6])
1 | Nc1nc(OCc2cccs2)c2nc[nH]c2n1 [B.4205, 0^6 -thenylguanine] | 7.70 | 7.70 | no such effects were seen | no differential | smaller sensitization effect than O^6 -benzylguanine | only occurred in one patient | little or no sensitization | comparable to O^6 -benzylguanine (BeG) in reducing tumour volume | less acutely toxic than BeG | up to 7 times |  | 
2 | Nc1nc(OCc2cc(Br)cs2)c2nc[nH]c2n1 [B.4280, O^6-(4-bromothenyl)guanine] |  |  |  |  |  |  |  |  | less acutely toxic than BeG; also recorded: less acutely toxic than B.4205 |  | activity in brain, testis and bone marrow was near to control levels by 24 hours whereas lung and spleen activity had not completely recovered by 48 hours | considerably less acutely toxic than B.4205 or BeG
